Patent US6723750B2, “Photodynamic therapy for pre-melanomas” (Allergan, Inc., priority 2002, dated 2004)

Test system: pre-melanoma
Experiment: Photodynamic therapy of pre-melanoma around the excision site after surgical melanoma removal (patient case examples)
Type: in vivo, human
Protocol: The melanoma is surgically removed and the patient is treated for pre-melanoma using photodynamic therapy. The area around the point of excision of the melanoma is contacted with a composition which includes aminolevulinic acid methyl ester at about a 10% (w/w) and a penetrating agent, DMSO, at a concentration of about 10% (w/w). The composition is applied directly to and around the site of excision of the melanoma covering an area of approximately 100 cm^2. The application is repeated once an hour for an 8 hour period. The area is then exposed to light in the wavelength range of about 500 to about 700 nm for approximately 10 hours.
The melanoma is surgically removed and the patient is treated for pre-melanoma using photodynamic therapy. The area around the point of excision of the melanoma is contacted with an ointment which includes amino levulinic acid methyl ester at about 5% (w/w) and a penetrating agent, DMSO, at a concentration of about 15% (w/w). The ointment is applied directly to and around the site of excision of the melanoma. The site of application is covered with a semi-permeable membrane for 24 hours after which the application is repeated and again covered for a 24 hour period. The area is then exposed to light in the wavelength range of about 610 nm to about 670 nm for approximately 2 hours once a day for four straight days. […]

COC(=O)CCC(=O)CN [aminolevulinic acid methyl ester]
cancer status of patient after treatment (Example 3: thigh, superficial spreading melanoma removed, about 10% (w/w) with DMSO about 10% (w/w), topical, once an hour for 8 hours, light about 500 to about 700 nm approx. 10 hours, at one year after treatment): no sign of cancer
cancer status of patient after surgery and treatment (Example 6: foot, acral lentiginous melanoma removed, ointment about 5% (w/w) with DMSO about 15% (w/w), two 24 hour applications, light about 610 nm to about 670 nm approx. 2 hours once a day for four days, two years after surgery): no sign of the cancer
